From US20220054432A1, “COMPOSITION FOR INCREASING RETENTION OF CAROTENOID IN BLOOD” (ENEOS Corporation, priority 2018, published 2022) come the findings set out here.

Data set [1] is described as follows: Transfer into each organ: carotenoid concentration in organs of mice (Test Example 1). As to conditions: 50 mg/kg orally once daily for 10 days; for concentration at 10 days: ICR, mouse, po, after last administration, mean. It counts as in vivo, ICR strain mice. The source says: Adonixanthin was used as an asymmetric carotenoid, and astaxanthin was used as a symmetric carotenoid. As experimental animals, ICR strain mice were used. Fourteen (14) mice were used, and 4 mice each were assigned to the adonixanthin-administration group and the astaxanthin-administration group, and 6 mice were assigned to the control administration group. In grouping, each group was constituted so that the mean body weight in each group was as uniform as possible based on the body weight on the day before initiation of administration.
To each experimental group, each of adonixanthin, astaxanthin, and olive oil (product number 150-00276, manufactured by Wako Pure Chemical Industries, Ltd.) was orally administered. In the adonixanthin-administration group and the astaxanthin-administration group, adonixanthin and astaxanthin at a volume of 50 mg/kg body weight were orally administered once daily for 10 days (the day of initiation of administration of the dosing substances was defined as day 1) using a flexible stomach tube. In the control administration group, olive oil at a volume of 0.05 mL/kg body weight was orally administered once daily for 10 days using a flexible stomach tube.
During the administration period, the mice were fed ad libitum a pellet (CE-2, manufactured by CLEA Japan, Inc.) and tap water, and maintained on a 12-h light/dark cycle, at 23±3° C., with a relative humidity of 50±20%.
After blood collection after the last administration, the whole body was perfused with a heparinized lactated Ringer's solution under isoflurane anesthesia, followed by collection of the retina, the heart, the lung, the spleen, the liver, and the kidney. The collected organs were immediately frozen with liquid nitrogen, and were stored at −80° C.
Each of the concentration of adonixanthin in each organ collected from the adonixanthin-administration group (concentration relative to the weight of each organ) and the concentration of astaxanthin in each organ collected from the astaxanthin-administration group (concentration relative to the weight of each organ) was measured. Specifically, each organ was homogenized, and extraction was repeated with acetone until no color occurred. Then, filtration through a filter was performed to evaporate acetone, and diethyl ether:hexane (2:8, v/v) was added to the solution to extract a carotenoid. Furthermore, evaporation to dryness was performed, and the residue was dissolved in acetone:hexane (2:8, v/v) and subjected to HPLC. As the HPLC device, a Hitachi L-6000 intelligent pump and an L-4250 UV-VIS detector were used. The measurement wavelength was 450 nm, and a column of 5 μm Cosmosil 5SL-II (inner diameter of 250×4.6 mm) (manufactured by Nacalai Tesque, Inc.) was used. As the mobile phase, acetone:hexane (2:8, v/v) was used, and measurement was performed at a flow rate of 1.0 mL/min.
In HPLC, the concentration of astaxanthin was measured as a concentration of each of the cis isomer and the trans isomer.
Each of the concentration of adonixanthin in each organ collected from the adonixanthin-administration group and the concentration of astaxanthin in each organ collected from the astaxanthin-administration group is shown in Table 1. The measured value was expressed as mean. From each organ collected from the control administration group, neither adonixanthin nor astaxanthin were detected.

The subject of data set [2] is 8-OHdG. Nature of the data set: Measurement of 8-OHdG in blood in mice (Test Example 4). Type of data set: in vivo, ICR strain mice. As to conditions: 300 mg/kg body weight orally once daily for 14 days, ELISA, vs control administration group (olive oil). The source says:
Adonixanthin was used as an asymmetric carotenoid, and astaxanthin was used as a symmetric carotenoid. As experimental animals, ICR strain mice were used. Thirty (30) mice were used, and 10 mice each were assigned to the adonixanthin-administration group, the astaxanthin-administration group, and the control administration group. […]
After end of administration for 14 days, blood was collected from the postcava of the mice under isoflurane absorption anesthesia. […] Thereafter, 8-OHdG of the collected serum was measured using 8-hydroxy 2 deoxyguanosine ELISA Kit (ab201734) (manufactured by Abcam plc.) as an ELISA kit for measurement of 8-OHdG.
Each of the concentration of 8-OHdG in serum collected from the adonixanthin-administration group, and the concentration of 8-OHdG in serum collected from the astaxanthin-administration group, and the concentration of 8-OHdG in serum collected from the control administration group is shown in FIG. 4. The concentration was expressed as mean±standard error. […]
On the technique in general: In an ELISA, binding on a coated surface is turned into a signal by an enzyme label.

Where [3] appears, read: heart, read-out: Concentration in organ: Heart.
[4] abbreviates: kidney, read-out: Concentration in organ: Kidney.
[5] abbreviates: liver, read-out: Concentration in organ: Liver.
[6] abbreviates: lung, read-out: Concentration in organ: Lung.
Where [7] appears, read: spleen, read-out: Concentration in organ: Spleen.

Each structure is given as a SMILES string. Read-outs that look alike come from different tables or passages of the source.

For the molecule `CC1=C(/C=C/C(C)=C/C=C/C(C)=C/C=C/C=C(C)/C=C/C=C(C)/C=C/C2=C(C)C(=O)C(O)CC2(C)C)C(C)(C)CC(O)C1` (stereo not drawn) [adonixanthin, 3,3′-dihydroxy-β,β-caroten-4-one], the “Transfer into and retention in each organ (summary of Table 1)” value in data set [1] was “especially likely to be transferred into each organ and retained therein”. For the same molecule, the concentration at 10 days in data set [1] (setting [3]) was 141 ng/g; in data set [1] (setting [4]) it was 774 ng/g; in data set [1] (setting [5]) it was 1930 ng/g; in data set [1] (setting [6]), 1940 ng/g; in data set [1] (setting [7]) it was 277 ng/g. Besides, in data set [2], the “Concentration of 8-OHdG in serum, FIG. 4” value was “significantly lower than that in the control administration group”.

`CC1=C(/C=C/C(C)=C/C=C/C(C)=C/C=C/C=C(C)/C=C/C=C(C)/C=C/C2=C(C)C(=O)C(O)CC2(C)C)C(C)(C)CC(O)C1=O` (stereo not drawn) [astaxanthin, 3,3′-dihydroxy-β,β-carotene-4,4′-dione]: the “Transfer into and retention in each organ (summary of Table 1)” value in data set [1] is “exist in each organ at a high concentration”. Further, the concentration at 10 days in data set [1] (setting [3]) turned out to be 124 ng/g; in data set [1] (setting [4]), 84.6 ng/g; in data set [1] (setting [5]), 109 ng/g; in data set [1] (setting [6]) it was 106 ng/g; in data set [1] (setting [7]) it was 87.8 ng/g. In data set [2], the “Concentration of 8-OHdG in serum, FIG. 4” value was “low”.
